Measurements published in patent US7501415B2, “Selective inhibitors of ERK protein kinase and uses thereof” (Vertex Pharmaceuticals Incorporated, priority 2004, dated 2009).

Target: activated ERK2 (Homo sapiens, UniProt P28482)
Assay: ERK2 inhibition assay, spectrophotometric coupled-enzyme assay
Assay type: biochemical
Details: activated ERK2 10 nM, 65 μM ATP, 200 μM erktide peptide, 30° C., pH 7.5
Method: In this assay, a fixed concentration of activated ERK2 (10 nM) was incubated with various concentrations of a compound of the present invention in DMSO (2.5%) for 10 min. at 30° C. in 0.1 M HEPES buffer (pH 7.5), containing 10 mM MgCl2, 2.5 mM phosphoenolpyruvate, 200 μM NADH, 150 μg/ml pyruvate kinase, 50 μg/ml lactate dehydrogenase, and 200 μM erktide peptide.

activated ERK2, sequence (P28482 whole entry): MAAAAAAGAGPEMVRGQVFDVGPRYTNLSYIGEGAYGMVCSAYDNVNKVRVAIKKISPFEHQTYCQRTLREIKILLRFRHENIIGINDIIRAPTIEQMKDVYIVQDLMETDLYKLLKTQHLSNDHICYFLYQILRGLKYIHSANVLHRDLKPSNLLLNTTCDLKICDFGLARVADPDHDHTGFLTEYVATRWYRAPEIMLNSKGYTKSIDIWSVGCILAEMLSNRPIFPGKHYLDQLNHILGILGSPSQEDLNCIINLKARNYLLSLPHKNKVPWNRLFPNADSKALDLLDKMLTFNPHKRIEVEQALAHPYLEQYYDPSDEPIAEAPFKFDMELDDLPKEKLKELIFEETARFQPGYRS

Ki	Compound
> 100 nM	Cc1cnc(Nc2c(Cl)cccc2Cl)nc1-c1c[nH]c(C(=O)NC(CO)c2ccccc2)c1 (centres unmarked) [Compound I-8]
< 100 nM	Cc1cccc(C(CO)NC(=O)c2cc(-c3nc(Nc4ccccc4Cl)ncc3C)c[nH]2)c1 (centres unmarked) [Compound I-10]
< 100 nM	Cc1cnc(Nc2ccccc2Cl)nc1-c1c[nH]c(C(=O)NC(CO)c2cccc(C(F)(F)F)c2)c1 (centres unmarked) [Compound I-11]
< 100 nM	Cc1cnc(Nc2c(F)cccc2Cl)nc1-c1c[nH]c(C(=O)NC(CO)c2ccccc2)c1 (centres unmarked) [Compound I-12]

Continued, molecule first:

Compound	Ki
Cc1cnc(Nc2ccc(Cl)cc2Cl)nc1-c1c[nH]c(C(=O)NC(CO)c2ccccc2)c1 (centres unmarked) [Compound I-3]	< 100 nM
Cc1cnc(Nc2ccc([N+](=O)[O-])cc2Cl)nc1-c1c[nH]c(C(=O)NC(CO)c2ccccc2)c1 (centres unmarked) [Compound I-4]	< 100 nM
Cc1cnc(Nc2cccc(Cl)c2Cl)nc1-c1c[nH]c(C(=O)NC(CO)c2ccccc2)c1 (centres unmarked) [Compound I-6]	< 100 nM
Cc1cnc(Nc2c(C)cccc2Cl)nc1-c1c[nH]c(C(=O)NC(CO)c2ccccc2)c1 (centres unmarked) [Compound I-9]	> 100 nM
